# Key:
# [1] = Walker carcinosarcoma 256 tumour growth inhibition in rats; format: in vivo, Sprague-Dawley rats; set-up: ED50: unit: mg/kg; settings: rat, in vivo, po, daily p.o. for 5 days
# Method in brief: (§1)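 Sprague-Dawley rats implanted with Walker 256 tumour pieces 2-4 mm across. Compound dosed p.o. daily for 5 days from the day after implantation, and animals killed on day 9. Tumour weights compared with controls. ED50 is the dose giving 50% tumour-size reduction, and LD50 is the dose giving 50% lethality.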
# [2] = tested on: Walker carcinosarcoma 256; assay: as above; format: in vivo, Sprague-Dawley rats; set-up: ED50: unit: mg/kg; settings: daily p.o. for 5 days, dose causing 50 percent reduction of tumour size, killed 9th day
# Method in brief: as §1
smiles,measurement,setting,value
"CC(=O)[C@@]1(OC(=O)COC(=O)c2ccc(C)c(N(CCCl)CCCl)c2)CC[C@H]2[C@@H]3CCC4=CC(=O)CC[C@]4(C)[C@H]3CC[C@@]21C [Compound 3:7, 17α-/3-(N,N-bis(2-chloroethyl)amino)-4-methylbenzoyloxyacetoxy/pregn-4-ene-3,20-dione]",LD50,[1]; dose causing 50 percent lethality,> 250 mg/kg
same,selectivity ratio,[1]; read-out: T.I. (LD50/ED50),> 15
same,ED50,[2],16
